From the supplement of paper PMC10307832

Columns and labels:
Assay in all cases: relative viability (nuclei count vs DMSO), 5 days (fraction); higher = more cells survive
Dactolisib + Decitabine = compound: Cn1c(=O)n(-c2ccc(C(C)(C)C#N)cc2)c2c3cc(-c4cnc5ccccc5c4)ccc3ncc21 [Dactolisib] + Nc1ncn([C@H]2C[C@H](O)[C@@H](CO)O2)c(=O)n1 [Decitabine] (partner 2 µM)
Procedure, shortened: (§1)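 Relative viability is defined as nuclei in treated wells over nuclei in vehicle wells. Duplicate plates were run and medians reported. Lung cancer cell lines in 1536-well plates were dosed by pin tool one day after seeding, with one drug or with a fixed anchor-drug dose plus five library-drug doses (not always all listed) in √10 steps, and nuclei were counted after 5 days.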

AZ505 + Vorinostat = compound: C1CCC(CC1)N(CCNCCC2=C3C(=C(C=C2)O)NC(=O)CO3)C(=O)CCNCCC4=CC(=C(C=C4)Cl)Cl [AZ505] + O=C(CCCCCCC(=O)Nc1ccccc1)NO [Vorinostat] (partner 1 µM)
Procedure, shortened: as §1

Dactolisib + Dasatinib = compound: Cn1c(=O)n(-c2ccc(C(C)(C)C#N)cc2)c2c3cc(-c4cnc5ccccc5c4)ccc3ncc21 [Dactolisib] + Cc1nc(Nc2ncc(C(=O)Nc3c(C)cccc3Cl)s2)cc(N2CCN(CCO)CC2)n1 [Dasatinib] (partner 0.075 µM)
Procedure, shortened: as §1

Dactolisib + Vorinostat = compound: Cn1c(=O)n(-c2ccc(C(C)(C)C#N)cc2)c2c3cc(-c4cnc5ccccc5c4)ccc3ncc21 [Dactolisib] + O=C(CCCCCCC(=O)Nc1ccccc1)NO [Vorinostat] (partner 1 µM)
Procedure, shortened: as §1

Cell Line	relative viability (Dactolisib + Decitabine; first compound 0.002 µM)	relative viability (Dactolisib + Decitabine; first compound 0.006325 µM)	relative viability (Dactolisib + Decitabine; first compound 0.02 µM)	relative viability (Dactolisib + Decitabine; first compound 0.06325 µM)	relative viability (Dactolisib + Decitabine; first compound 0.2 µM)	relative viability (AZ505 + Vorinostat; first compound 0.08 µM)	relative viability (AZ505 + Vorinostat; first compound 0.253 µM)	relative viability (AZ505 + Vorinostat; first compound 0.8 µM)	relative viability (AZ505 + Vorinostat; first compound 2.53 µM)	relative viability (AZ505 + Vorinostat; first compound 8 µM)	relative viability (Dactolisib + Dasatinib; first compound 0.002 µM)	relative viability (Dactolisib + Dasatinib; first compound 0.006325 µM)	relative viability (Dactolisib + Dasatinib; first compound 0.02 µM)	relative viability (Dactolisib + Dasatinib; first compound 0.06325 µM)	relative viability (Dactolisib + Dasatinib; first compound 0.2 µM)	relative viability (Dactolisib + Vorinostat; first compound 0.002 µM)	relative viability (Dactolisib + Vorinostat; first compound 0.006325 µM)	relative viability (Dactolisib + Vorinostat; first compound 0.02 µM)	relative viability (Dactolisib + Vorinostat; first compound 0.06325 µM)	relative viability (Dactolisib + Vorinostat; first compound 0.2 µM)
ChaGo-K-1	0.558	0.541	0.51	0.527	0.501	0.695	0.758	0.816	0.682	0.775	0.584	0.56	0.597	0.523	0.556	0.724	0.821	0.719	0.623	0.757
PC-14	0.333	0.222	0.261	0.161	0.138	0.527	0.79	0.659	0.688	0.761	0.312	0.285	0.264	0.0655	0.0441	0.767	0.681	0.417	0.155	0.163
NCI-H1437	0.716	0.551	0.676	0.569	0.482	0.828	0.838	0.858	0.955	0.823	0.378	0.426	0.378	0.358	0.227	0.865	0.836	0.802	0.68	0.552
NCI-H460	0.612	0.461	0.504	0.252	0.134	0.69	0.912	0.672	0.71	0.782	0.568	0.503	0.448	0.185	0.112	0.643	0.659	0.723	0.127	0.173
NCI-H1666	0.836	0.714	0.756	0.607	0.596	1.01	1.01	0.962	1.03	1.12	0.877	0.793	0.791	0.677	0.588	1.09	0.977	0.969	0.922	0.87
SW 900	0.546	0.443	0.405	0.409	0.425	0.536	0.303	0.43	0.675	0.678	0.431	0.455	0.694	0.265	0.174	0.478	0.443	0.434	0.216	0.24
NCI-H1651	0.644	0.689	0.503	0.327	0.314	0.443	0.606	0.585	0.607	0.568	0.388	0.435	0.318	0.238	0.177	0.579	0.645	0.547	0.391	0.377
NCI-H1755	0.87	0.768	0.766	0.673	0.536	0.782	0.859	0.788	0.743	0.813	0.392	0.401	0.379	0.412	0.278	0.758	0.77	0.71	0.619	0.477
NCI-H661	0.574	0.532	0.501	0.346	0.324	0.744	0.818	0.797	0.75	0.888	0.562	0.744	0.483	0.296	0.286	0.773	0.766	0.71	0.455	0.391
HARA	0.708	0.558	0.634	0.623	0.356	0.547	0.522	0.457	0.471	0.541	0.273	0.25	0.213	0.292	0.127	0.578	0.461	0.523	0.41	0.11
NCI-H596	1	0.965	0.814	0.718	0.523	0.549	–	0.577	0.612	0.521	0.629	0.539	0.528	0.384	0.319	0.48	0.577	0.521	0.313	0.222
NCI-H23	0.295	0.296	0.316	0.263	0.234	0.526	0.582	0.561	0.81	0.627	0.852	0.682	0.679	0.325	0.302	0.512	0.49	0.462	0.18	0.176
LCLC-97TM1	0.261	0.24	0.23	0.172	0.155	0.625	0.746	0.748	–	0.984	0.811	0.85	0.858	0.853	0.741	0.615	0.655	0.612	0.251	0.311
EPLC-272H	0.36	0.364	0.317	0.281	0.23	0.443	0.516	0.413	0.52	0.398	0.359	0.254	0.318	0.207	0.233	0.571	0.409	0.261	0.36	0.159
NCI-H2342	0.726	0.689	0.677	0.58	0.501	0.799	0.844	0.84	0.866	0.83	0.298	0.294	0.348	0.31	0.284	0.656	0.832	0.698	0.75	0.568
NCI-H1915	0.291	0.259	0.266	0.285	0.251	0.469	0.66	0.508	0.472	0.495	0.357	0.332	0.308	0.241	0.175	0.556	0.487	0.531	0.402	0.453
